Source: ChEMBL document CHEMBL5108048, “Potent GCN2 Inhibitor Capable of Reversing MDSC-Driven T Cell Suppression Demonstrates In Vivo Efficacy as a Single Agent and in Combination with Anti-Angiogenesis Therapy” (J Med Chem, 2022)

Key:
eIF-2-alpha kinase GCN2 [1] = target: T1, eIF-2-alpha kinase GCN2 (Homo sapiens, UniProt Q9P2K8); assay: Inhibition of GCN2 (unknown origin)
eIF-2-alpha kinase GCN2 [2] = target: T1, eIF-2-alpha kinase GCN2; assay: Inhibition of GCN2 in human SK-OV-3 cells assessed as reduction in phosphorylation of eIF2alpha by cellular assay; type: cell-based

T1 sequence (Q9P2K8 whole entry): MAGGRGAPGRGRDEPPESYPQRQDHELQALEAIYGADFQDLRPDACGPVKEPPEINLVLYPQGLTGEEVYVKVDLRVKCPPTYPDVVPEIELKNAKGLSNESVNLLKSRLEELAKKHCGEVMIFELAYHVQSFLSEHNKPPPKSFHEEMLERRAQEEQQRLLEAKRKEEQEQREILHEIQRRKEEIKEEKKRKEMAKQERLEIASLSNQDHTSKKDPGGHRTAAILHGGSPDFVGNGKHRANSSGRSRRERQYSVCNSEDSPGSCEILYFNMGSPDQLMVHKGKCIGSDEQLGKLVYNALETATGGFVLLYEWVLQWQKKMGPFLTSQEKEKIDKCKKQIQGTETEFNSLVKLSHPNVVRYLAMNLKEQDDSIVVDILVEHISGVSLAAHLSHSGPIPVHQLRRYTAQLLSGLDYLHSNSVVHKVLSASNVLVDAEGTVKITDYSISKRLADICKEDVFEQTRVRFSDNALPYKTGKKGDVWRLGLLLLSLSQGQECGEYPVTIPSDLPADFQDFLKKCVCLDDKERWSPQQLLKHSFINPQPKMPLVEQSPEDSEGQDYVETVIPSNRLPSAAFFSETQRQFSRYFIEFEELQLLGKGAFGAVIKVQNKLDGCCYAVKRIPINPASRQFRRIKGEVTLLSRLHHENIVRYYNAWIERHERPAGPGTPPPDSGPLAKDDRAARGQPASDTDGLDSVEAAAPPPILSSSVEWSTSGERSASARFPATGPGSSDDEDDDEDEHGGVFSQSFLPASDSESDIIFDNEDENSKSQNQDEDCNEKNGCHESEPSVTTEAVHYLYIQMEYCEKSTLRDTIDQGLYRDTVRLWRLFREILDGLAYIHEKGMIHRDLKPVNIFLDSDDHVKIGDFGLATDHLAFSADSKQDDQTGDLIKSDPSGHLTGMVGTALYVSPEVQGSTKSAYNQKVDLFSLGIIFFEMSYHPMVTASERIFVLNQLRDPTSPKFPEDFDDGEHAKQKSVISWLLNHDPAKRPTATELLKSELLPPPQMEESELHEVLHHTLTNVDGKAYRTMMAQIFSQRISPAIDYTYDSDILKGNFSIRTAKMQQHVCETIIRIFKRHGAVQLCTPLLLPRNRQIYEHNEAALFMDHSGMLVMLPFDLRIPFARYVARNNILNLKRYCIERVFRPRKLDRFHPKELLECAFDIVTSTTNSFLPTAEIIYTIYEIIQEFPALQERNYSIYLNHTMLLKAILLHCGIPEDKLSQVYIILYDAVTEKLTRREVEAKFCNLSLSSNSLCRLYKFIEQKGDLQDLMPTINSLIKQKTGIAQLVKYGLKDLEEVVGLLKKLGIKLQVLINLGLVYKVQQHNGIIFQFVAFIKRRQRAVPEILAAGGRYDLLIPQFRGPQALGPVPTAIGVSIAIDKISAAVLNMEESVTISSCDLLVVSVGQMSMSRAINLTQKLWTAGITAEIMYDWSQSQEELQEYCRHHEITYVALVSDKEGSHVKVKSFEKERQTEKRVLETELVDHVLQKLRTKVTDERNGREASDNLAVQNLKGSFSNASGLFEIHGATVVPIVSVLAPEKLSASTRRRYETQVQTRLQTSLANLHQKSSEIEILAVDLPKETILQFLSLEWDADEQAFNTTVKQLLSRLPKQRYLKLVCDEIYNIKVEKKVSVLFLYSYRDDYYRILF

Compound | IC50 (eIF-2-alpha kinase GCN2 [1]) [nM] | IC50 (eIF-2-alpha kinase GCN2 [2]) [nM]
CCn1cc(Nc2ncc3c(C)nn(-c4ccc(C#N)cc4)c3n2)cn1 | 56 | –
CNS(=O)(=O)[C@@H]1CC[C@@H](Nc2ncc3c(Br)nn(-c4ccc5ncccc5c4)c3n2)C1 | 43 | 106
CNC(=O)[C@]1(C)CC[C@@H](Nc2ncc3c(Br)nn(-c4ccc(-c5nnc(C)s5)c(CO)c4)c3n2)C1 | 91 | –
COCCNC(=O)[C@H]1C[C@H](Nc2ncc3c(Br)nn(-c4ccc5ncccc5c4)c3n2)C1 | 40 | 86
COCCNC(=O)[C@@H]1CC[C@H](Nc2ncc3c(Br)nn(-c4ccc5ncccc5c4)c3n2)C1 | 923 | –
CNC(=O)[C@]1(C)CC[C@@H](Nc2ncc3c(Br)nn(-c4ccc(-c5nnc(C)s5)c(CCN)c4)c3n2)C1 | 15 | 240
FC(F)(F)c1nn(-c2ccc3ncccc3c2)c2nc(Nc3cnn(C4CCNCC4)c3)ncc12 | 168 | –
CCn1cc(Nc2ccn3ncc(-c4ccc(OC)cc4)c3n2)cn1 | > 1000 | –
COCCNC(=O)CCNc1ncc2c(Br)nn(-c3ccc4ncccc4c3)c2n1 | > 1000 | –
CNC(=O)[C@]1(C)CC[C@@H](Nc2ncc3c(Br)nn(-c4ccc(-c5nnc(C)s5)c(S(C)(=O)=O)c4)c3n2)C1 | 61 | –
CNC(=O)[C@]1(C)CC[C@@H](Nc2ncc3c(Br)nn(-c4ccc(-c5cnc(C)s5)cc4)c3n2)C1 | 27 | –
CCn1cc(Nc2ncc3cnn(-c4ccc(OC)cc4)c3n2)cn1 | 133 | –
CCn1cc(Nc2ncc3ccn(-c4ccc(OC)cc4)c3n2)cn1 | 405 | –
COCCNC(=O)[C@@H]1CC[C@@H](Nc2ncc3c(Br)nn(-c4ccc5ncccc5c4)c3n2)C1 | 5 | 20
COCCC(=O)N[C@@H]1CC[C@@H](Nc2ncc3c(Br)nn(-c4ccc5ncccc5c4)c3n2)C1 | 74 | 159
CNC(=O)[C@]1(C)CC[C@@H](Nc2ncc3c(Br)nn(-c4ccc(-c5nnc(C)s5)c(F)c4)c3n2)C1 | 8 | 33
CNC(=O)[C@]1(C)CC[C@@H](Nc2ncc3c(Br)nn(-c4ccc5ncccc5c4)c3n2)C1 | 17 | 21

Compound | IC50 (eIF-2-alpha kinase GCN2 [1]) [nM] | IC50 (eIF-2-alpha kinase GCN2 [2]) [nM]
Clc1nn(-c2ccc3ncccc3c2)c2nc(Nc3cnn(C4CCNCC4)c3)ncc12 | 5 | –
CCn1cc(Nc2ncc3c(C)nn(-c4ccc(OC)cc4)c3n2)cn1 | 81 | –
CCn1cc(Nc2ncc3c(C)nn(-c4ccc5ncccc5c4)c3n2)cn1 | 23 | –
CS(=O)(=O)N1CC[C@@H](Nc2ncc3c(Br)nn(-c4ccc5ncccc5c4)c3n2)C1 | 90 | 378
COCc1noc([C@@H]2CC[C@@H](Nc3ncc4c(Br)nn(-c5ccc6ncccc6c5)c4n3)C2)n1 | 106 | –
COCCNC(=O)CNc1ncc2c(Br)nn(-c3ccc4ncccc4c3)c2n1 | > 1000 | –
COCCNC(=O)[C@H]1CC[C@H](Nc2ncc3c(Br)nn(-c4ccc5ncccc5c4)c3n2)CC1 | 159 | 628
CCn1cc(Nc2ncc3cccc(Nc4ccc(OC)cc4)c3n2)cn1 | > 1000 | –
CCn1cc(Nc2ncc3cccc(-c4ccc(OC)cc4)c3n2)cn1 | > 1000 | –
CNC(=O)[C@]1(C)CC[C@@H](Nc2ncc3c(Br)nn(-c4ccc(-c5nnc(C)s5)c(CC#N)c4)c3n2)C1 | 78 | –
CNC(=O)[C@]1(C)CC[C@@H](Nc2ncc3c(Br)nn(-c4ccc(-c5nnc(C)s5)c(CS(C)(=O)=O)c4)c3n2)C1 | 211 | –
CNC(=O)[C@]1(C)CC[C@@H](Nc2ncc3c(Br)nn(-c4ccc(-c5nnc(C)s5)cc4F)c3n2)C1 | 359 | –
CNC(=O)[C@]1(C)CC[C@@H](Nc2ncc3c(Br)nn(-c4ccc(-c5nnc(C)s5)c(CCN(C)C)c4)c3n2)C1 | 29 | –
CNC(=O)[C@]1(C)CC[C@@H](Nc2ncc3c(Br)nn(-c4ccc(-c5ncc(C)s5)cc4)c3n2)C1 | 76 | –
CNC(=O)[C@]1(C)CC[C@@H](Nc2ncc3c(Br)nn(-c4ccc(-c5nnc(C)s5)c(CNS(C)(=O)=O)c4)c3n2)C1 | 109 | –
Cc1nn(-c2ccc3ncccc3c2)c2nc(Nc3cnn(C4CCNCC4)c3)ncc12 | 11 | –
